Assays:
ΔF508-CFTR [1] = biological target: T1, ΔF508-CFTR (Homo sapiens, UniProt P13569, DEL508-508); assay: CFTR cell surface levels using HRP-tagged ΔF508-CFTR expressing CFBE cells, in the presence of a co-corrector; assay type: cell-based; details: HRP-tagged ΔF508-CFTR CFBE cells, in the presence of 3 μM co-corrector; for EC50: read-out: EC50
T1 construct: host or cells: CFBE41o-, doxycycline-inducible
Outline: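 Chemiluminescent read-out of surface HRP (15 min, dark) after PBS washes. Activity is normalized as 100×(sample−DMSO)/(3 μM co-corrector alone−DMSO).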

ΔF508-CFTR [2] = biological target: T1, ΔF508-CFTR; assay: CFTR cell surface levels using HRP-tagged ΔF508-CFTR expressing CFBE cells, intrinsic corrector capacity; assay type: cell-based; set-up: % Activation: concentration or dose not given beside the values; details: HRP-tagged ΔF508-CFTR expressing CFBE41o- cells, compound alone (intrinsic corrector capacity), 20 hours at 33° C.; for EC50: read-out: EC50
Outline: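 Read-out: chemiluminescent HRP activity of ECL4-HRP-tagged ΔF508-CFTR at the cell surface, 15 min substrate in dark. Normalized as 100×(sample−DMSO)/(positive control−DMSO).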

T1 sequence (P13569 with tags, fused parts or gaps DEL508-508): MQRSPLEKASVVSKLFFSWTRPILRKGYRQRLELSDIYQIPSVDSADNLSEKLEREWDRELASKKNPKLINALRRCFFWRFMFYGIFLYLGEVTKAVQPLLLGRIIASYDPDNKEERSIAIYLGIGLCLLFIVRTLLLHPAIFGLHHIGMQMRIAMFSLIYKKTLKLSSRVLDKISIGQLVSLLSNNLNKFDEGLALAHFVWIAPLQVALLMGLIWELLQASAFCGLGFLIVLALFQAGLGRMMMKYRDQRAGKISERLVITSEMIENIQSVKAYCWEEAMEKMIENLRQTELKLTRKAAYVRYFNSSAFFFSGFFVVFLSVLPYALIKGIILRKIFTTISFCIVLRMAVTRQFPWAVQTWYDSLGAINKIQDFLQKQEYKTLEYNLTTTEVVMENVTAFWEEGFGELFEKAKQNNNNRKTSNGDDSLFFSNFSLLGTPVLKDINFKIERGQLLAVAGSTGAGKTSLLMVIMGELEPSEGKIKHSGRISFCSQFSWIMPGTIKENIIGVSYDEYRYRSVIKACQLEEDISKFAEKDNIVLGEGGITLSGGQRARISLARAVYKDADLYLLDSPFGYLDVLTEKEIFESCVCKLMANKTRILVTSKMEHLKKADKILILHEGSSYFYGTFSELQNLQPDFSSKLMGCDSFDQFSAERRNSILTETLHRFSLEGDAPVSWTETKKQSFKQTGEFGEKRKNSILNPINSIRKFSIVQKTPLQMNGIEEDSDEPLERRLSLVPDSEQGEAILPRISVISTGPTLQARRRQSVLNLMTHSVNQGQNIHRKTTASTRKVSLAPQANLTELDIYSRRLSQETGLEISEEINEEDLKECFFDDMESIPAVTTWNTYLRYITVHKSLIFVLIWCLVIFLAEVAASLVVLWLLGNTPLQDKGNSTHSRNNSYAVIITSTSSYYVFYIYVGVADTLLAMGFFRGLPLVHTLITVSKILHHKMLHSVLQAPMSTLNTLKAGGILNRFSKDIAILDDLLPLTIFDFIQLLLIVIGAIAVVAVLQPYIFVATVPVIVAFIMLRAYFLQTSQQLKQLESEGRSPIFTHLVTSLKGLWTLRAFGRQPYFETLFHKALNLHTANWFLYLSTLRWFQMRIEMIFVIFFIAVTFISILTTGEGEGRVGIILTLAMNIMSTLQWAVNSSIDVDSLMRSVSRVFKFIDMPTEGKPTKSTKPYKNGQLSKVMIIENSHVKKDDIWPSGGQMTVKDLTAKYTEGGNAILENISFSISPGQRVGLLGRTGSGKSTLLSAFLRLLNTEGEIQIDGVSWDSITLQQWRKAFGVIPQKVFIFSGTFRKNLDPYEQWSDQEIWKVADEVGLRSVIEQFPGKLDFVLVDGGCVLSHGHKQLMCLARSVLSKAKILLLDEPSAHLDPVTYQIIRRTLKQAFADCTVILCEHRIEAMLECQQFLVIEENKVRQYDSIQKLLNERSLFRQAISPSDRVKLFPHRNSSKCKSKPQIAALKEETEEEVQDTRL

Row | SMILES | % Activation (ΔF508-CFTR [1]) [%] | EC50 (ΔF508-CFTR [1]) [nM] | % Activation (ΔF508-CFTR [2]) [%] | EC50 (ΔF508-CFTR [2]) [nM]
1 | CC(C)COC1CCN(c2cc(C(=O)NS(C)(=O)=O)nc3c2c(C(C)C)nn3-c2ccc(F)cc2)CC1 [Compound 175, 1-(4-fluorophenyl)-N-(methanesulfonyl)-4-[4-(2-methylpropoxy)piperidin-1-yl]-3-(propan-2-yl)-1H-pyrazolo[3,4-b]pyridine-6-carboxamide] | 461.1 | 200 | 270.5 | 337
2 | CC(=O)N1CCC2CN(c3cc(C(=O)NS(C)(=O)=O)nc4c3c(C3CCC3)nn4-c3ccccc3)CCC21 (stereo not shown) [Compound 216, 4-(1-acetyloctahydro-5H-pyrrolo[3,2-c]pyridin-5-yl)-3-cyclobutyl-N-(methanesulfonyl)-1-phenyl-1H-pyrazolo[3,4-b]pyridine-6-carboxamide] | 456.1 | 300 | 275.67 | 766
3 | COc1ccc(-n2nc(C(C)C)c3c(-c4ccc(N(C)C)cc4)cc(C(=O)NS(C)(=O)=O)nc32)cn1 [Compound 17, 4-[4-(dimethylamino)phenyl]-N-(methanesulfonyl)-1-(6-methoxypyridin-3-yl)-3-(propan-2-yl)-1H-pyrazolo[3,4-b]pyridine-6-carboxamide] | 320 | 1120 | 140.75 | 1230
4 | CC(C)Oc1nn(-c2ccccc2)c2nc(C(=O)NS(=O)(=O)C3CC3)cc(-c3ccc(N4CCOCC4)cc3)c12 [Compound 225, N-(cyclopropanesulfonyl)-4-[4-(morpholin-4-yl)phenyl]-1-phenyl-3-[(propan-2-yl)oxy]-1H-pyrazolo[3,4-b]pyridine-6-carboxamide] | 427.95 | 579 | 215.35 | 456
5 | CN(C)S(=O)(=O)NC(=O)c1cc(CN2CCC(N3CCOCC3)CC2)c2c(C3CCC3)nn(-c3ccc(F)cc3)c2n1 [Compound 595, 3-cyclobutyl-N-(dimethylsulfamoyl)-1-(4-fluorophenyl)-4-{[4-(morpholin-4-yl)piperidin-1-yl]methyl}-1H-pyrazolo[3,4-b]pyridine-6-carboxamide] | 231.9 | 1430 | 58.87 | 1520
6 | Cc1nn(-c2cccc(OC(F)(F)F)c2)c2nc(C(=O)NS(C)(=O)=O)cc(-c3ccc(N4CCOCC4)cc3)c12 [Compound 6, N-(methanesulfonyl)-3-methyl-4-[4-(morpholin-4-yl)phenyl]-1-[3-(trifluoromethoxy)phenyl]-1H-pyrazolo[3,4-b]pyridine-6-carboxamide] | 387.1 | 511 | 232.1 | 808
7 | CC(C)(C)c1nn(C2CCCC2)c2nc(C(=O)NS(C)(=O)=O)cc(-c3ccc(N4CCOCC4)nc3)c12 [Compound 12, 3-tert-butyl-1-cyclopentyl-N-(methanesulfonyl)-4-[6-(morpholin-4-yl)pyridin-3-yl]-1H-pyrazolo[3,4-b]pyridine-6-carboxamide] | 364.15 | 714 | 161.15 | 1070
8 | CC(C)c1nn(-c2ccc(F)cc2)c2nc(C(=O)NS(C)(=O)=O)cc(OCCCN3CCCCC3)c12 [Compound 307, 1-(4-fluorophenyl)-N-(methanesulfonyl)-4-[3-(piperidin-1-yl)propoxy]-3-(propan-2-yl)-1H-pyrazolo[3,4-b]pyridine-6-carboxamide] | 299.25 | 1280 | 172.7 | 3330
9 | CC(C)c1nn(C2CCCCC2)c2nc(C(=O)NS(C)(=O)=O)cc(-c3ccc(N(C)C)nc3)c12 [Compound 22, 1-cyclohexyl-4-[6-(dimethylamino)pyridin-3-yl]-N-(methanesulfonyl)-3-(propan-2-yl)-1H-pyrazolo[3,4-b]pyridine-6-carboxamide] | 371.55 | 503 | 161.5 | 732
10 | CC1(S(=O)(=O)NC(=O)c2cc(N3CCC(N4CCN(C5CC5)CC4)CC3)c3c(C4CCC4)nn(-c4ccccc4)c3n2)CC1 [Compound 557, 3-cyclobutyl-4-[4-(4-cyclopropylpiperazin-1-yl)piperidin-1-yl]-N-(1-methylcyclopropane-1-sulfonyl)-1-phenyl-1H-pyrazolo[3,4-b]pyridine-6-carboxamide] | 474.4 | 116 | 248.5 | 252
11 | CC(C)(C)S(=O)(=O)NC(=O)c1cc(N2CCC(CN3CCCC3)CC2)c2c(C3CCC3)nn(-c3ccccc3)c2n1 [Compound 465, 3-cyclobutyl-N-(2-methylpropane-2-sulfonyl)-1-phenyl-4-{4-[(pyrrolidin-1-yl)methyl]piperidin-1-yl}-1H-pyrazolo[3,4-b]pyridine-6-carboxamide] | 293.15 | 360 | 131.6 | 313
12 | Cc1nn(-c2ccccc2)c2nc(C(=O)NS(=O)(=O)c3ccccc3)cc(-c3ccc(N4CCOCC4)cc3)c12 [Compound 2, N-(benzenesulfonyl)-3-methyl-4-[4-(morpholin-4-yl)phenyl]-1-phenyl-1H-pyrazolo[3,4-b]pyridine-6-carboxamide] | 431.5 | 1120 | 226.75 | 1870
13 | CCS(=O)(=O)NC(=O)c1cc(-c2ccc(N3CCOCC3)cc2)c2c(C(C)C)nn(-c3ccc(F)c(F)c3)c2n1 [Compound 223, 1-(3,4-difluorophenyl)-N-(ethanesulfonyl)-4-[4-(morpholin-4-yl)phenyl]-3-(propan-2-yl)-1H-pyrazolo[3,4-b]pyridine-6-carboxamide] | 438.2 | 371 | 258.95 | 469
14 | C[C@H](C1CCN(c2cc(C(=O)NS(=O)(=O)N(C)C)nc3c2c(C2CCC2)nn3-c2ccc(F)cc2)CC1)N1CCOCC1 (single isomer, unassigned) [Compound 479] | 524.1 | 109 | 305.7 | 197
15 | COCCC1CCN(c2cc(C(=O)NS(C)(=O)=O)nc3c2c(C2CCC2)nn3-c2ccccc2)CC1 [Compound 183, 3-cyclobutyl-N-(methanesulfonyl)-4-[4-(2-methoxyethyl)piperidin-1-yl]-1-phenyl-1H-pyrazolo[3,4-b]pyridine-6-carboxamide] | 498.57 | 214 | 302 | 389
16 | CNS(=O)(=O)NC(=O)c1cc(N2CCC(COC)CC2)c2c(C3CCC3)nn(-c3ccc(F)cc3)c2n1 [Compound 669, 3-cyclobutyl-1-(4-fluorophenyl)-4-[4-(methoxymethyl)piperidin-1-yl]-N-(methylsulfamoyl)-1H-pyrazolo[3,4-b]pyridine-6-carboxamide] | 394 | 244 | 334.9 | 211
17 | CS(=O)(=O)NC(=O)c1cc(-c2ccc(N3CCC(C#N)CC3)cc2)c2c(C3CCC3)nn(C3CCCCC3)c2n1 [Compound 103, 4-[4-(4-cyanopiperidin-1-yl)phenyl]-3-cyclobutyl-1-cyclohexyl-N-(methanesulfonyl)-1H-pyrazolo[3,4-b]pyridine-6-carboxamide] | 501.03 | 409 | 263.8 | 536
18 | CCS(=O)(=O)NC(=O)c1cc(-c2ccc(N3CCOCC3)cc2)c2c(C)nn(-c3ccc(F)c(F)c3)c2n1 [Compound 116, 1-(3,4-difluorophenyl)-N-(ethanesulfonyl)-3-methyl-4-[4-(morpholin-4-yl)phenyl]-1H-pyrazolo[3,4-b]pyridine-6-carboxamide] | 438.37 | 630 | 295.57 | 957
19 | CCS(=O)(=O)NC(=O)c1cc(-c2ccc(N3CC(N(C)C)C3)cc2)c2c(C)nn(-c3ccccc3)c2n1 [Compound 42, 4-{4-[3-(dimethylamino)azetidin-1-yl]phenyl}-N-(ethanesulfonyl)-3-methyl-1-phenyl-1H-pyrazolo[3,4-b]pyridine-6-carboxamide] | 226.3 | 378 | 45.225 | 2120
20 | COCCS(=O)(=O)NC(=O)c1cc(-c2ccc(OC)cc2)c2c(C)nn(C(C)C)c2n1 [Compound 234, N-(2-methoxyethanesulfonyl)-4-(4-methoxyphenyl)-3-methyl-1-(propan-2-yl)-1H-pyrazolo[3,4-b]pyridine-6-carboxamide] | 128.3 | > 10000 | 17.89 | > 10000
21 | CS(=O)(=O)NC(=O)c1cc(N2CC3(CCC3)C2)c2c(C3CCC3)nn(-c3ccccc3)c2n1 [Compound 214, 4-(2-azaspiro[3.3]heptan-2-yl)-3-cyclobutyl-N-(methanesulfonyl)-1-phenyl-1H-pyrazolo[3,4-b]pyridine-6-carboxamide] | 250.55 | 384 | 103.6 | 1010
22 | O=C(NS(=O)(=O)N1CCC(N2CCCC2)CC1)c1cc(OCC2CCOCC2)c2c(C3CCC3)nn(-c3ccccc3)c2n1 [Compound 351, 3-cyclobutyl-4-[(oxan-4-yl)methoxy]-1-phenyl-N-[4-(pyrrolidin-1-yl)piperidine-1-sulfonyl]-1H-pyrazolo[3,4-b]pyridine-6-carboxamide] | 232.5 | 81.1 | 50.87 | 73.5
